Results reported in patent US9649313B2, “Use of ITK inhibitors for the treatment of cancer” (The University of North Carolina at Chapel Hill, priority 2012, dated 2017).

Columns and labels:
[1] = test system: PMWK (ITKLO) melanoma cell line; test: proliferation assay (cell counts); assay type: cell-based, Human; details: inhibitor as high as 150 nM
Description: (§1) FIG. 4A-4E. Effects of ITK knockdown on proliferation and motility of melanoma cells. FIG. 4A) Western of lysates of VMM 39 containing each of the four shRNA constructs using rabbit monoclonal anti ITK (Y401). FIG. 4B) The four shRNA lentiviral constructs were used to transduce three melanoma cell lines, PMWK (ITKLO), VMM 39 (ITKHI), and RPMI 8322 (ITKHI). 50,000 cells were placed into each well of a 6 well plate, which was then counted 3, 5, and 6, or 7 days after plating to assess the proliferation rates of the different cell lines. FIG. 4C) Single Cell Motility assays were performed on three different melanoma cell lines, PMWK, VMM 39, and RPMI 8322. Each melanoma cell line was transduced with the four shRNA lentiviral constructs producing a total of 12 cell lines. 10,000 cells were plated on fibronectin coated glass bottom dishes. Pictures were taken once every 40 minutes for 16 hours. FIG. 4D) Cell cycle analysis of PMWK, VMM 39, and RPMI 8322 cells that have been transduced with various shRNAs. Cells were harvested after 3 hours of incubation with 5-ethynyl-2′-deoxyuridine (EdU). EdU incorporation and DNA content with FxCycle Violet were analyzed using flow cytometry. Illustrated in this panel are the percentages of cells in G0/G1 (low DNA and EdU content), S (high EdU and low-to-medium DNA content), and G2/M (Low EdU and high DNA content). FIG. 4E) Single-cell motility analysis of PMWK, VMM 39, and RPMI 8322 that have been transduced with various shRNAs. At least 50 cells were tracked for each cell line and the average motility rate was determined. […]
(§2) FIG. 5A-5C. […] Cells were trypsinized and counted using the Invitrogen Countess. […] The cells were counted with the Invitrogen Countess at 3, 5, and 6 or 7 days after plating to assess the proliferation rates of the different cell lines in the presence of BI 10N. […] Following 3 days of BI 10N treatment, the cells were incubated with EdU for 3 hours and were subsequently assessed for 5-ethynyl-2′-deoxyuridine (EdU) incorporation rate and DNA content with FxCycle Violet. […]

[2] = test system: RPMI 8322 (ITKHI) melanoma cell line; test: proliferation assay (cell counts); assay type: cell-based, Human; details: 50 nM
Description: as §1, §2

[3] = test system: VMM 39 (ITKHI) melanoma cell line; test: proliferation assay (cell counts); assay type: cell-based, Human; details: 50 nM
Description: as §1, §2

[4] = test system: A375 (ITKINT) melanoma cell line; test: proliferation assay (cell counts); assay type: cell-based, Human; details: 50 nM
Method: (§3) FIG. 5A-5C. Effects of BI 10N inhibitor on proliferation and motility of melanoma cells. FIG. 5A) Cell motility assays were performed as described in FIG. 4A-4E; however, the inhibitor BI 10N was added to the media to decrease ITK kinase activity in parental cell lines instead of using the shRNA ITK knockdown cell lines. BI 10N was added to the media 24 hours prior to the start of the motility assay and the VivaView camera system was used to image cellular motility of the melanoma cells as described previously. FIG. 5B) The proliferation assays were completed as described in FIG. 4A-4E, substituting the BI 10N compound for the shRNA. Cells were trypsinized and counted using the Invitrogen Countess. Fifty thousand cells were placed into each well of a 6 well plate and BI 10N was added to the indicated concentrations. The cells were counted with the Invitrogen Countess at 3, 5, and 6 or 7 days after plating to assess the proliferation rates of the different cell lines in the presence of BI 10N. FIG. 5C) Both ITKHI (RPMI 8322) and ITKLO (PMWK) melanoma cell lines were grown in the presence of BI 10N (10-200 nM) in soft agar. In 24-well cell culture plates 2,500 cells per well were added to a 1.4% agarose solution. The agarose and cell solution was then poured on top of a solidified base agar. The cells were incubated at 37° C. for three to four weeks to ensure adequate growth before analysis. FIG. 5D) Cell cycle analysis of PMWK, VMM 39, and RPMI 8322 cells that have been treated with increasing concentrations of BI 10N. Following 3 days of BI 10N treatment, the cells were incubated with EdU for 3 hours and were subsequently assessed for 5-ethynyl-2′-deoxyuridine (EdU) incorporation rate and DNA content with FxCycle Violet. […]
(§4) Human melanoma cell lines were plated onto 10 cm^2 6 well dishes at a density of 50,000 cells per well. […] Five hundred […] of media was added to the cell suspension, the cells were removed from the well and then counted using the Countess® Automated Cell Counter from Life Technologies (cat #C10227). […]

[5] = test system: SKMEL 131 (ITKLO) melanoma cell line; test: proliferation assay (cell counts); assay type: cell-based, Human; details: inhibitor as high as 150 nM
Method: as §3, §4

[6] = test system: SKMEL 153 (ITKHI) melanoma cell line; test: proliferation assay (cell counts); assay type: cell-based, Human; details: 50 nM
Method: as §3, §4

[7] = test system: A375 (ITKINT) melanoma cell line; test: single cell motility assay; assay type: cell-based, Human
Method: (§5) FIG. 5A-5C. Effects of BI 10N inhibitor on proliferation and motility of melanoma cells. FIG. 5A) Cell motility assays were performed as described in FIG. 4A-4E; however, the inhibitor BI 10N was added to the media to decrease ITK kinase activity in parental cell lines instead of using the shRNA ITK knockdown cell lines. BI 10N was added to the media 24 hours prior to the start of the motility assay and the VivaView camera system was used to image cellular motility of the melanoma cells as described previously. FIG. 5B) The proliferation assays were completed as described in FIG. 4A-4E, substituting the BI 10N compound for the shRNA. Cells were trypsinized and counted using the Invitrogen Countess. Fifty thousand cells were placed into each well of a 6 well plate and BI 10N was added to the indicated concentrations. The cells were counted with the Invitrogen Countess at 3, 5, and 6 or 7 days after plating to assess the proliferation rates of the different cell lines in the presence of BI 10N. FIG. 5C) Both ITKHI (RPMI 8322) and ITKLO (PMWK) melanoma cell lines were grown in the presence of BI 10N (10-200 nM) in soft agar. In 24-well cell culture plates 2,500 cells per well were added to a 1.4% agarose solution. The agarose and cell solution was then poured on top of a solidified base agar. The cells were incubated at 37° C. for three to four weeks to ensure adequate growth before analysis. FIG. 5D) Cell cycle analysis of PMWK, VMM 39, and RPMI 8322 cells that have been treated with increasing concentrations of BI 10N. Following 3 days of BI 10N treatment, the cells were incubated with EdU for 3 hours and were subsequently assessed for 5-ethynyl-2′-deoxyuridine (EdU) incorporation rate and DNA content with FxCycle Violet. Shown in this panel are the percentages of cells in G0/G1 (low DNA and EdU content), S (high EdU and low-to-medium DNA content), and G2/M (Low EdU and high DNA content)
(§6) Single cell tracking was performed as described (Williams et al., 2012 Circ Res 111(1):56-65). Briefly melanoma cells were plated on 5 μg/cm2 collagen coated MatTek dishes (MatTek Corp., Ashland, Mass. part #P35G-1.5-10-C) and allowed to attach for 24 hours in the presence of either DMSO (1:1000) or BI 10N in DMSO. Cells were monitored for 16 hours using the Olympus VivaView live cell imaging microscope system. Images were taken at a magnification of 10× and were converted to stacks using Image J software. Single-cells were tracked using Image J manual tracking software and velocities were obtained.

[8] = test system: SKMEL 103 (ITKINT) melanoma cell line; test: single cell motility assay; assay type: cell-based, Human
Method: as §5, §6

[9] = test system: SKMEL 131 (ITKLO) melanoma cell line; test: single cell motility assay; assay type: cell-based, Human
Method: as §5, §6

[10] = test system: SKMEL 153 (ITKHI) melanoma cell line; test: single cell motility assay; assay type: cell-based, Human; details: 10-25 nM
Method: as §5, §6

cytokine production = details: anti-CD3 antibody stimulated Balb/c mice; Riether et al., 2009; cited from earlier work

CC(C)C(C)CNCc1ccc2c(c1)[nH]/c(=N\C(=O)c1ccc(C3=CN=NC3)s1)n2CC(C)(C)O (centres unmarked) [BI 10N]
effect on doubling time [1]: did not increase their doubling time
increase in doubling time [2]: about 50%
increase in doubling time [3]: about 50%
effect on proliferation [4]: decreased similarly to the ITKHI cell lines
effect on doubling time [5]: did not increase their doubling time
increase in doubling time [6]: about 50%
concentration required for smaller changes in migration [7]: ≥ 150 nM
effect on migration ([7]; 10-25 nM): unaffected
concentration required for smaller changes in migration [8]: ≥ 150 nM
effect on migration ([8]; 10-25 nM): unaffected
concentration required for smaller changes in migration [9]: ≥ 150 nM
effect on migration ([9]; 10-25 nM): do not decrease
decrease in migration [10]: about 50%
cytokine production in vivo (cytokine production): decrease cytokine production
